Holding throughout (test): NCI anticancer screen, dose series, 48 h
The subject of experiment [1] is OVCAR-3.
Experiment [2] relates to U-251.
The test system of experiment [3] is MDA-MB-231.
Experiment [4] has as its system BT-549.
Experiment [5] has as its system Malme-3M.
For experiment [6], the system named is TK-10.
Experiment [7] concerns HT-29.
In experiment [8] the test system is SNB-19.
Experiment [9] has as its system DLD-1.
In experiment [10] the test system is RPMI-8226.
Experiment [11] concerns PC-3.
In experiment [12] the test system is MOLT-4.
The subject of experiment [13] is SK-MEL-2.
The subject of experiment [14] is NCI/ADR-RES.
The test system of experiment [15] is HOP-62.
For experiment [16], the system named is NCI-H226.
For experiment [17], the system named is UACC-62.
Experiment [18] relates to HCC 2998.
Experiment [19] concerns HOP-92.
The test system of experiment [20] is EKVX.

Structures are written as SMILES.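 Compound exposure: 48 hours, 5 concentrations, 96-well plates. At the GI50, growth is halved.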 Active and inactive are the calls of the source. Cut-off read from the data, not from the text of the source: active = GI50 up to about 1.1 µM and inactive = higher. A value given as a limit tells only on which side of the number the result lay.

As for `O=C1/C(=C/c2ccc(Cl)c(Cl)c2)CNC/C1=C\c1ccc(Cl)c(Cl)c1`, the GI50 was 3.89 µM (inactive) in [1]; 5.11 µM (inactive) in experiment [2]; 3.14 µM (inactive) in [3]; 27.9 µM (inactive) in experiment [4]; 28.1 µM (inactive) in [5]; 31 µM (inactive) in experiment [6]. Moreover, the GI50 was 5.35 µM (inactive) in [7]; 1.46 µM (inactive) in experiment [8]; 1.89 µM (inactive) in experiment [9]; 3.75 µM (inactive) in experiment [10]; 13.9 µM (inactive) in experiment [11]; 5.4 µM (inactive) in [12]. Moreover, the GI50 in experiment [13] is 23.3 µM (inactive); in experiment [14] it was 3.66 µM (inactive); in experiment [15] it was 14.5 µM (inactive); in experiment [16], 21.9 µM (inactive); in experiment [17], 14 µM (inactive); in experiment [18] it was 9.66 µM (inactive). The GI50 is 22 µM (inactive) in experiment [19] and 6.17 µM (inactive) in [20].

Consider `COc1ccc(Cc2cc(OC)c(OC)c(OC)c2)cc1O`, for which the GI50 in [1] was 0.0365 µM (active); in experiment [2], 0.0982 µM (active); in experiment [3], 0.0122 µM (active); in experiment [4] it was < 0.01 µM (active); in experiment [5], 0.0389 µM (active); in experiment [6], > 90.4 µM (inactive). For the same compound, the GI50 in experiment [7] was 14.3 µM (inactive); in experiment [8], 0.0352 µM (active); in experiment [9] it was 0.207 µM (active); in experiment [10] it was < 0.021 µM (active); in experiment [11], < 0.0171 µM (active); in experiment [12], 0.0211 µM (active). The GI50 in [13] was 0.0702 µM (active); in experiment [14] it was < 0.01 µM (active); in [15] it was 0.109 µM (active); in [16] it was 36.7 µM (inactive); in experiment [17] it was 0.457 µM (active); in experiment [18], 2.41 µM (inactive). Besides, the GI50 was 0.119 µM (active) in experiment [19] and 24.7 µM (inactive) in [20].

In the case of `COc1cc2c(cc1OC)C1c3ccccc3C(C#N)(C2)N(C(=O)c2ccccc2)C1O` (centres undefined), the GI50 is 52.1 µM (inactive) in [1]; 56.5 µM (inactive) in experiment [2]; > 100 µM (inactive) in experiment [5]; 93.1 µM (inactive) in [6]; > 100 µM (inactive) in [7]; 59 µM (inactive) in [8]. Besides, the GI50 in [9] was 74.1 µM (inactive); in [10], 45 µM (inactive); in [12], 35.2 µM (inactive); in [13], 56.5 µM (inactive); in experiment [15], 25.7 µM (inactive); in experiment [16], 61.1 µM (inactive). The GI50 was 43.7 µM (inactive) in experiment [17], > 100 µM (inactive) in experiment [18], > 100 µM (inactive) in [19] and 75 µM (inactive) in experiment [20].

On to `CC1=C(CC2C(=O)N(c3ccccc3)S(=O)(=O)NC2C)C(=O)N(c2ccccc2)S(=O)(=O)N1C` (centres undefined), for which the GI50 in [1] was > 100 µM (inactive); in [2], > 10 µM (inactive); in experiment [5] it was > 100 µM (inactive); in experiment [6], > 100 µM (inactive); in experiment [7], > 100 µM (inactive); in experiment [8] it was > 100 µM (inactive). The GI50 in experiment [9], in [10], in experiment [12], in experiment [13], in [15] and in experiment [16] was > 100 µM (inactive) each time. Further, the GI50 in [17], in [18], in experiment [19] and in [20] was > 100 µM (inactive) in each case.

Take `N#CC1=C(Cl)NC(Cl)=C(C#N)C1c1ccc(Cl)cc1`: the GI50 in [1] was 14 µM (inactive); in [2], 16.3 µM (inactive); in [5], 21.3 µM (inactive); in experiment [6] it was 18 µM (inactive); in [7], 16 µM (inactive); in experiment [8] it was 16.6 µM (inactive). The GI50 in experiment [9] was 17.7 µM (inactive); in experiment [10], 17.5 µM (inactive); in [12], 18.7 µM (inactive); in experiment [13], 13.9 µM (inactive); in [15], 18.1 µM (inactive); in [16], 20.5 µM (inactive). In addition, the GI50 in [17] was 16.7 µM (inactive); in [18] it was 19.1 µM (inactive); in experiment [19] it was 15.2 µM (inactive); in experiment [20] it was 19.5 µM (inactive).

Turning to `COc1cc2c(c(OC)c1OC)-c1ccc(OC)c(=O)cc1C(NC(=O)COc1ccccc1)CC2` (centres undefined), the GI50 in experiment [1] is < 0.01 µM (active); in experiment [2], < 0.01 µM (active); in [3], < 0.01 µM (active); in experiment [4], < 0.01 µM (active); in experiment [5], < 0.01 µM (active); in experiment [6] it was 0.627 µM (active). For the same compound, the GI50 in experiment [7], in experiment [8], in [9], in experiment [10], in experiment [11] and in experiment [12] was < 0.01 µM (active) in each case. The GI50 is < 0.01 µM (active) in experiment [13]; 0.0546 µM (active) in experiment [14]; < 0.01 µM (active) in [15]; < 0.0372 µM (active) in experiment [16]; < 0.01 µM (active) in experiment [17]; < 0.01 µM (active) in [18]. The GI50 in experiment [19] is < 0.01 µM (active); in [20], 0.731 µM (active).

As for `COC(=O)[C@@]12C(=O)C=CC(=O)[C@@H]1C1C(=CC2COC(C)=O)O[C@@H]2OC3(CCCCC3)O[C@H]12` (some centres undefined), the GI50 was 6.37 µM (inactive) in [1]; 15.6 µM (inactive) in experiment [2]; 19.5 µM (inactive) in [3]; 13.2 µM (inactive) in [4]; 15.7 µM (inactive) in experiment [5]; 8.38 µM (inactive) in [6]. In addition, the GI50 was 6.01 µM (inactive) in [7]; 16.1 µM (inactive) in experiment [8]; 9.68 µM (inactive) in experiment [9]; 2.99 µM (inactive) in experiment [10]; 12.6 µM (inactive) in experiment [11]; 3.29 µM (inactive) in [12]. Also, the GI50 in [13] is 20.2 µM (inactive); in experiment [14], 12.8 µM (inactive); in experiment [15], 19.8 µM (inactive); in experiment [16], 17.2 µM (inactive); in experiment [17], 12.9 µM (inactive); in [18] it was 16.1 µM (inactive). Further, the GI50 in experiment [19] was 8.49 µM (inactive); in experiment [20], 15.4 µM (inactive).

On to `O=[N+]([O-])c1ccc(-n2nnc(C3=NCCN3)c2-c2ccccc2)cc1`, for which the GI50 in experiment [1], in experiment [2], in [5], in [6], in experiment [7] and in experiment [8] was > 100 µM (inactive) each time. Besides, the GI50 in [9], in [10], in experiment [12], in experiment [13], in experiment [15] and in [16] was > 100 µM (inactive) each time. Besides, the GI50 in [17], in experiment [18], in [19] and in experiment [20] was > 100 µM (inactive) each time.

Values taken from ChEMBL document CHEMBL1201862, “PubChem BioAssay data set” (2004).
